Reference: patent US20240351997A1, “NOVEL PARP7 INHIBITOR AND USE THEREOF” (SHANGHAI QILU PHARMACEUTICAL RESEARCH AND DEVELOPMENT …, priority 2021, published 2024)

Each compound was assayed against PARP7 (Homo sapiens (Human), UniProt Q7Z3E1) (assay: In vitro enzymology experiment of PARP7 (enzymatic inhibition)).
Assay type: biochemical
Description: II. In Vitro Enzymology Experiment of PARP2, 3, 5A, 5B, 7, 12, and 15
1. Preparation of 384-well histone-coated plate: 25 μL of histone solution was added to each well, and the plate was incubated overnight at 4° C.
2. Preparation of PBST buffer, blocking buffer, and assay buffer
3. The 384-well histone-coated plate was washed three times with PBST buffer. The plate was blocked by 50 μL of blocking buffer for 1 hour at room temperature. The plate was then washed three times with PBST buffer.
2000× compound was prepared in a 96-well source plate. 50 nL of the compound was transferred from the source plate to a 96-well intermediate plate, and 39.95 μL of assay buffer was added to each well. The plate was shaken well and centrifuged at 1000 rpm for 1 minute.
5 μL of compound DMSO solution was transferred to each well.
An enzyme mixture was incubated at 25° C. for 10 minutes.
10 μL of the enzyme mixture was added, and incubated with the compound at room temperature for 10 minutes.
10 μL of assay buffer was added to the negative control well of the assay plate.
The plate was then washed three times with PBST buffer.
25 μL of Stre-HRP was added.
The plate was incubated at room temperature for 1 hour and washed three times with PBS buffer.
25 μL of QuantaRed Enhancer mix was added. The plate was incubated for 10 minutes.
2.5 μL of QuantaRed Stop Solution was added to terminate the peroxidase reaction, and the plate was shaken for 10 to 30 seconds.
7. Paradigm was used to read the plate immediately to detect the readings at Ex550/Em620.
Using equation (1) to fit the data in Excel to obtain inhibition values
Using equation (2) to fit the data in XL-Fit to obtain IC50 values
Y is the percentage of inhibition, and X is the compound concentration.

Sequence of PARP7 (Q7Z3E1 whole entry): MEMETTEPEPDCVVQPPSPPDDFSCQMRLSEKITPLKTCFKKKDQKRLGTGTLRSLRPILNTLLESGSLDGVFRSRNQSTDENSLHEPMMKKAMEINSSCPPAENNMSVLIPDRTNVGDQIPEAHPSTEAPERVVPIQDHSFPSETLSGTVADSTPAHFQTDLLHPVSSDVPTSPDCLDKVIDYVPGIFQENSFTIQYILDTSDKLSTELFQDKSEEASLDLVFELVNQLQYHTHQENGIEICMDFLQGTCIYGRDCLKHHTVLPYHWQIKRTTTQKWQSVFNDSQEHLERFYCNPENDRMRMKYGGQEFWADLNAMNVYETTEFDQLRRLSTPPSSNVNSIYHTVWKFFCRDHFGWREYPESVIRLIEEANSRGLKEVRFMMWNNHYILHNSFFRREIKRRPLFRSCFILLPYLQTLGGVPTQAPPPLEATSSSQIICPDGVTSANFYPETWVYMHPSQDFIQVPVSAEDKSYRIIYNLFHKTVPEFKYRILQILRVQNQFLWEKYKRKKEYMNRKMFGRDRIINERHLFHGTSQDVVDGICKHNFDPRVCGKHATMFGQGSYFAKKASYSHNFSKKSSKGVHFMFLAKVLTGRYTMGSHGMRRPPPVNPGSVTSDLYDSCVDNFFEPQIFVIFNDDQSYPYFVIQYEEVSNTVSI

**Q.** Which IC50 does the source give for `O=C(OCC1(c2c[nH]c(=O)c(C(F)(F)F)c2)CC1)N1CCN(c2ncc(C(F)(F)F)cn2)CC1` [Example 41, (1-(6-Oxo-5-(trifluoromethyl)-1,6-dihydropyridin-3-yl)cyclopropyl)methyl 4-(5-(trifluoromethyl)pyrimidin-2-yl)piperazine-1-carboxylate] here?
**A.** 1.1 nM

**Q.** With `CC(Cc1c[nH]c(=O)c(C(F)(F)F)c1)OC(=O)N1CCN(c2ncccn2)CC1` (stereo not drawn) [Example 42, 1-(6-Oxo-5-(trifluoromethyl)-1,6-dihydropyridin-3-yl)propan-2-yl 4-(pyrimidin-2-yl)piperazine-1-carboxylate] as the compound, how does the IC50 read?
**A.** 1.46 nM

**Q.** How did the IC50 turn out when `Cc1cnc(N2CCN(C(=O)OC(C)Cc3c[nH]c(=O)c(C(F)(F)F)c3)CC2)nc1` (stereo not drawn) [Example 43, 1-(6-Oxo-5-(trifluoromethyl)-1,6-dihydropyridin-3-yl)propan-2-yl 4-(5-methylpyrimidin-2-yl)piperazine-1-carboxylate] was run?
**A.** 0.9 nM

**Q.** Which IC50 does the source give for `CC(Cc1c[nH]c(=O)c(C(F)(F)F)c1)OC(=O)N1CCN(c2ncc(Cl)cn2)CC1` (stereo not drawn) [Example 44, 1-(6-Oxo-5-(trifluoromethyl)-1,6-dihydropyridin-3-yl)propan-2-yl 4-(5-chloropyrimidin-2-yl)piperazine-1-carboxylate] here?
**A.** 0.8 nM

**Q.** `CC(Cc1c[nH]c(=O)c(C(F)(F)F)c1)OC(=O)N1CCN(c2ncc(C#N)cn2)CC1` (stereo not drawn) [Example 45, 1-(6-Oxo-5-(trifluoromethyl)-1,6-dihydropyridin-3-yl)propan-2-yl 4-(5-cyanopyrimidine-2-yl)piperazine-1-carboxylate] was tested. Which IC50 did it give?
**A.** 2.26 nM

**Q.** For `CC(Cc1c[nH]c(=O)c(C(F)(F)F)c1)OC(=O)N1CCN(c2ncccc2C#N)CC1` (stereo not drawn) [Example 46, 1-(6-Oxo-5-(trifluoromethyl)-1,6-dihydropyridin-3-yl)propan-2-yl 4-(3-cyanopyridin-2-yl)piperazine-1-carboxylate], which IC50 is on record?
**A.** 1.94 nM

**Q.** With `O=C(CCO[C@@H]1CCC[C@@H]1c1c[nH]c(=O)c(C(F)(F)F)c1)N1CCN(c2ncc(C(F)(F)F)cn2)CC1` [Example 47, 5-((1R,2R)-2-(3-Oxo-3-(4-(5-(trifluoromethyl)pyrimidin-2-yl)piperazin-1-yl)propoxy)cyclopentyl)-3-(trifluoromethyl)pyridin-2(1H)-one] as the compound, how does the IC50 read?
**A.** 7.22 nM

**Q.** `C[C@@H](Cc1c[nH]c(=O)c(C(F)(F)F)c1)OC(=O)N1CCN(c2ncc(C(F)(F)F)s2)CC1` [Example 49, (S)-1-(6-Oxo-5-(trifluoromethyl)-1,6-dihydropyridin-3-yl)propan-2-yl 4-(5-(trifluoromethyl)thiazol-2-yl)piperazine-1-carboxylate] was tested. Which IC50 did it give?
**A.** 0.76 nM

**Q.** How did the IC50 turn out when `C[C@@H](Cc1c[nH]c(=O)c(C(F)(F)F)c1)OC(=O)N1CCN(c2ncc(C(F)F)cn2)CC1` [Example 50, (S)-1-(6-Oxo-5-(trifluoromethyl)-1,6-dihydropyridin-3-yl)propan-2-yl 4-(5-(difluoromethyl)pyrimidin-2-yl)piperazine-1-carboxylate] was run?
**A.** 0.52 nM

**Q.** With `C[C@@H](Cc1c[nH]c(=O)c(C(F)(F)F)c1)OC(=O)N[C@H]1CCN(c2ncc(C(F)(F)F)cn2)C1` [Example 51, (S)-1-(6-Oxo-5-(trifluoromethyl)-1,6-dihydropyridin-3-yl)propan-2-yl ((S)-1-(5-(trifluoromethyl)pyrimidin-2-yl)pyrrolidin-3-yl)carbamate] as the compound, how does the IC50 read?
**A.** 1.34 nM

**Q.** Which IC50 does the source give for `C[C@@H](Cc1c[nH]c(=O)c(C(F)(F)F)c1)OC(=O)N[C@@H]1CCN(c2ncc(C(F)(F)F)cn2)C1` [Example 52, (S)-1-(6-Oxo-5-(trifluoromethyl)-1,6-dihydropyridin-3-yl)propan-2-yl ((R)-1-(5-(trifluoromethyl)pyrimidin-2-yl)pyrrolidin-3-yl)carbamate] here?
**A.** 1.18 nM

**Q.** For `C[C@@H](Cc1c[nH]c(=O)c(C(F)(F)F)c1)OC(=O)N1CC[C@@H](Nc2ncc(C(F)(F)F)cn2)C1` [Example 53, (S)-1-(6-Oxo-5-(trifluoromethyl)-1,6-dihydropyridin-3-yl)propan-2-yl (R)-3-((5-(trifluoromethyl)pyrimidin-2-yl)amino) pyrrolidine-1-carboxylate], which IC50 is on record?
**A.** 2.3 nM

**Q.** For `C[C@@H](Cc1c[nH]c(=O)c(C(F)(F)F)c1)OC(=O)N1CC(Nc2ncc(C(F)(F)F)cn2)C1` [Example 54, (S)-1-(6-Oxo-5-(trifluoromethyl)-1,6-dihydropyridin-3-yl)propan-2-yl 3-((5-(trifluoromethyl)pyrimidin-2-yl)amino) azetidine-1-carboxylate], which IC50 is on record?
**A.** 6.23 nM

**Q.** How did the IC50 turn out when `C[C@@H](Cc1c[nH]c(=O)c(C(F)(F)F)c1)OC(=O)NC1CCN(c2ncc(C(F)(F)F)cn2)CC1` [Example 55, (S)-1-(6-Oxo-5-(trifluoromethyl)-1,6-dihydropyridin-3-yl)propan-2-yl (1-(5-(trifluoromethyl)pyrimidin-2-yl)piperidin-4-yl)carbamate] was run?
**A.** 3.42 nM

**Q.** `O=C(O[C@H]1CCC[C@@H]1c1c[nH]c(=O)c(C(F)(F)F)c1)N1CCN(c2ncc(C(F)(F)F)cn2)CC1` [Example 56, (1S,2R)-2-(6-Oxo-5-(trifluoromethyl)-1,6-dihydropyridin-3-yl)cyclopentyl 4-(5-(trifluoromethyl)pyrimidin-2-yl)piperazine-1-carboxylate] was tested. Which IC50 did it give?
**A.** 2.27 nM

**Q.** With `O=C(CO[C@H]1CCC[C@@H]1c1c[nH]c(=O)c(C(F)(F)F)c1)N1CCN(c2ncc(C(F)(F)F)cn2)CC1` [Example 57, 5-((1R,2S)-2-(2-Oxo-2-(4-(5-(trifluoromethyl)pyrimidin-2-yl)piperazin-1-yl)ethoxy)cyclopentyl)-3-(trifluoromethyl)pyridin-2(1H)-one] as the compound, how does the IC50 read?
**A.** 0.74 nM

**Q.** For `O=C(COCC1CCCC1c1c[nH]c(=O)c(C(F)(F)F)c1)N1CCN(c2ncc(C(F)(F)F)cn2)CC1` (stereo not drawn) [Example 58, 5-(2-((2-Oxo-2-(4-(5-(trifluoromethyl)pyrimidin-2-yl)piperazin-1-yl)ethoxy)methyl)cyclopentyl)-3-(trifluoromethyl)pyridin-2(1H)-one], which IC50 is on record?
**A.** 3.18 nM

**Q.** How did the IC50 turn out when `O=C(OCC1CCCC1c1c[nH]c(=O)c(C(F)(F)F)c1)N1CCN(c2ncc(C(F)(F)F)cn2)CC1` (stereo not drawn) [Example 59, (2-(6-Oxo-5-(trifluoromethyl)-1,6-dihydropyridin-3-yl)cyclopentyl)methyl 4-(5-(trifluoromethyl)pyrimidin-2-yl)piperazine-1-carboxylate] was run?
**A.** 1.06 nM

**Q.** Which IC50 does the source give for `CC(C(=O)N1CCN(c2ncc(C(F)(F)F)cn2)CC1)c1c[nH]c(=O)c(C(F)(F)F)c1` (stereo not drawn) [Example 60, 5-(1-Oxo-1-(4-(5-(trifluoromethyl)pyrimidin-2-yl)piperazin-1-yl)propan-2-yl)-3-(trifluoromethyl)pyridin-2(1H)-one] here?
**A.** 7.02 nM

**Q.** How did the IC50 turn out when `Cc1cc(Cc2c[nH]c(=O)c(C(F)(F)F)c2)cc(C(=O)N2CCN(c3ncc(C(F)(F)F)cn3)CC2)c1` [Example 61, 5-(3-Methyl-5-(4-(5-(trifluoromethyl)pyrimidin-2-yl)piperazine-1-carbonyl)benzyl)-3-(trifluoromethyl)pyridin-2(1H)-one] was run?
**A.** 0.72 nM

**Q.** For `CC(Cc1c[nH]c(=O)c(C(F)(F)F)c1)OC(=O)N1CCN(c2ccc(C(F)(F)F)cn2)CC1` (stereo not drawn) [Example 62, 1-(6-Oxo-5-(trifluoromethyl)-1,6-dihydropyridin-3-yl)propan-2-yl 4-(5-(trifluoromethyl)pyridin-2-yl)piperazine-1-carboxylate], which IC50 is on record?
**A.** 2.09 nM

**Q.** With `CC(Cc1c[nH]c(=O)c(C(F)(F)F)c1)OC(=O)N1CCN(c2ncc(Br)cn2)CC1` (stereo not drawn) [Example 63, 1-(6-Oxo-5-(trifluoromethyl)-1,6-dihydropyridin-3-yl)propan-2-yl 4-(5-bromopyrimidin-2-yl)piperazine-1-carboxylate] as the compound, how does the IC50 read?
**A.** 3.12 nM

**Q.** How did the IC50 turn out when `CC(Cc1c[nH]c(=O)c(C(F)(F)F)c1)OC(=O)N1CCN(c2ccc(C#N)cn2)CC1` (stereo not drawn) [Example 64, 1-(6-Oxo-5-(trifluoromethyl)-1,6-dihydropyridin-3-yl)propan-2-yl 4-(5-cyanopyridin-2-yl)piperazine-1-carboxylate] was run?
**A.** 1.99 nM

**Q.** For `C[C@@H](Cc1c[nH]c(=O)c(C(F)(F)F)c1)OC(=O)N1CCN(c2ncc(F)cn2)CC1` [Example 65, (S)-1-(6-Oxo-5-(trifluoromethyl)-1,6-dihydropyridin-3-yl)propan-2-yl 4-(5-fluoropyrimidin-2-yl)piperazine-1-carboxylate], which IC50 is on record?
**A.** 0.65 nM

**Q.** Which IC50 does the source give for `C[C@@H](Cc1c[nH]c(=O)c(C(F)(F)F)c1)OC(=O)N1CC[C@H](Nc2ncc(C(F)(F)F)cn2)C1` [Example 66, (S)-1-(6-Oxo-5-(trifluoromethyl)-1,6-dihydropyridin-3-yl)propan-2-yl (S)-3-((5-(trifluoromethyl)pyrimidin-2-yl)amino) pyrrolidine-1-carboxylate] here?
**A.** 1.82 nM

**Q.** Which IC50 does the source give for `Cc1cc(CC(C)OC(=O)N2CCN(c3ncc(C(F)(F)F)cn3)CC2)c[nH]c1=O` (stereo not drawn) [Example 67, 1-(5-Methyl-6-oxo-1,6-dihydropyridin-3-yl)propan-2-yl 4-(5-(trifluoromethyl)pyrimidin-2-yl)piperazine-1-carboxylate] here?
**A.** 0.76 nM

**Q.** `O=C(c1ccc(F)c(Cc2c[nH]c(=O)c(C(F)(F)F)c2)c1)N1CCN(c2ncc(C(F)(F)F)cn2)CC1` [Example 68, 5-(2-Fluoro-5-(4-(5-(trifluoromethyl)pyrimidin-2-yl)piperazine-1-carbonyl)benzyl)-3-(trifluoromethyl)pyridin-2(1H)-one] was tested. Which IC50 did it give?
**A.** 1.11 nM
